Entries after “also recorded” stand apart in the source; their conditions may differ. Like-named read-outs stand apart in the source and are kept apart here.
Tests used:
[1] = target: CDK7/cyclin H (Homo sapiens, UniProt P50613); experiment: CDK 7 and 9 assay (CTD peptide substrate); assay type: biochemical; settings: in-house kinase assays; read-out: Average IC50 CDK7H
Method: (§1) Kinase activity was investigated by measuring the incorporation of radioactive phosphate from ATP into appropriate polypeptide substrates. Recombinant protein kinases and kinase complexes were produced or obtained commercially. Assays were performed using 96-well plates and appropriate assay buffers (typically 25 mM β-glycerophosphate, 20 mM MOPS, 5 mM EGTA, 1 mM DTT, 1 mM […], pH 7.4), into which were added 2-4 μg of active enzyme with appropriate substrates. The reactions were initiated by addition of Mg/ATP mix (15 mM MgCl2+100 μM ATP with 30-50 kBq per well of [γ-^32P]-ATP) and mixtures incubated as required at 30° C. Reactions were stopped on ice, followed by filtration through p81 filterplates or GF/C filterplates (Whatman Polyfiltronics, Kent, UK). After washing 3 times with 75 mM aq orthophosphoric acid, plates were dried, scintillant added and incorporated radioactivity measured in a scintillation counter (TopCount, Packard Instruments, Pangbourne, Berks, UK). Compounds for kinase assay were made up as 10 mM stocks in DMSO and diluted into 10% DMSO in assay buffer.
(§2) The reaction was stopped by placing the plate on ice for 2 min. Avidin (50 μg) was added to each well, and the plate was incubated at room temp for 30 min. The samples were transferred to a 96-well P81 filter plate, and washed (4×200 μL per well) with 75 mM phosphoric acid. Microscint 40 scintillation liquid (50 μL) was added to each well, and the amount of ^32P incorporation for each sample was measured using a Packard Topcount microplate scintillation counter.

[2] = tested on: HCT116 cells; settings: cited from earlier work
[3] = target: T1, AurA (Homo sapiens, UniProt O14965); experiment: In-house kinase assay (32P incorporation); assay type: biochemical; settings: in-house kinase assays
T1 sequence (O14965 1-403): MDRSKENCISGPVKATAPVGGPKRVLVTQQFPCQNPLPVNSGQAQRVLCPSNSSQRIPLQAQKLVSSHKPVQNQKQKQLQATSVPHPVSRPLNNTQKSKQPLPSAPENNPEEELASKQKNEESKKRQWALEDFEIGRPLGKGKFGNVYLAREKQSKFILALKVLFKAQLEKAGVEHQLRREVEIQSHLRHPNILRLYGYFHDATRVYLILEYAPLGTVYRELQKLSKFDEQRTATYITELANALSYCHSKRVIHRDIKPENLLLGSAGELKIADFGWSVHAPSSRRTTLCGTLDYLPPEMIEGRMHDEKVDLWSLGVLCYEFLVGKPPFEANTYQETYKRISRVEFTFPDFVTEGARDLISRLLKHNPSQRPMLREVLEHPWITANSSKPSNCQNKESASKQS
Method: as §1

[4] = target: AurB (Homo sapiens, UniProt Q96GD4); experiment: In-house kinase assay (32P incorporation); assay type: biochemical; settings: in-house kinase assays
Method: as §1

[5] = target: CDK1B (Homo sapiens, UniProt P06493); experiment: In-house kinase assay (32P incorporation); assay type: biochemical; settings: in-house kinase assays
Method: as §1

[6] = target: CDK2A (Homo sapiens, UniProt P24941); experiment: In-house kinase assay (32P incorporation); assay type: biochemical; settings: in-house kinase assays
Method: as §1

[7] = target: CDK2E (Homo sapiens, UniProt P24941); experiment: In-house kinase assay (32P incorporation); assay type: biochemical; settings: in-house kinase assays
Method: as §1

[8] = target: CDK4D1 (Homo sapiens, UniProt P11802); experiment: In-house kinase assay (32P incorporation); assay type: biochemical; settings: in-house kinase assays
Method: as §1

[9] = target: CDK6D3 (Homo sapiens, UniProt Q00534); experiment: In-house kinase assay (32P incorporation); assay type: biochemical; settings: in-house kinase assays
Method: as §1

[10] = target: CDK9/cyclin T1 (Homo sapiens, UniProt P50750); experiment: CDK 7 and 9 assay (CTD peptide substrate); assay type: biochemical; settings: in-house kinase assays; read-out: Average IC50 CDK9T1
Method: as §1, §2

[11] = tested on: tumour cell panels; experiment: In-house 72 hour cytotoxicity assays on tumour cell panels; assay type: cell-based
[12] = tested on: stimulated PBMCs; experiment: T cell proliferation assay (BrdU ELISA in stimulated PBMCs); assay type: cell-based
Method: PBMCs were seeded in 96 well plates at 1×10^5 cells/well, in 50 μL per well culture medium. […] All stimulants and compounds were made up to 4× final concentration in tissue culture medium and 25 μL of each drug and stimulant was then added to wells, for a final volume of 100 μL/well. For unstimulated controls, 25 μL tissue culture medium was added to wells instead of stimulant and for untreated cells, 25 μL/well tissue culture medium containing equal volume DMSO (0.1% final) was added. Three adjacent wells were treated for each stimulation/treatment condition and the mean value calculated for analysis.
In addition, PBMCs were stimulated with ConA (Concanavalin A, Sigma C5275) at concentrations ranging from 0.5 μg/mL to 100 μg/mL to identify its stimulatory effect and optimal concentration.
Cells were labelled with BrdU for two hours prior to harvesting. Plates were then centrifuged for 10 minutes at 300 g (RT), supernatant removed from wells by pipetting and cells dried for 1 hour at 60° C. FixDenat solution was added to plates (100 μL/well) and incubated for 30 minutes, then flicked to remove and anti-BrdU-POD solution added to plates (100 μL/well) and incubated for 90 minutes.

[13] = rounded IC50 value used for ease of calculation in PBMC assays, read-out: IC50 Used
[14] = Example 3, PHA stimulated PBMCs, compounds at IC50 to 4×IC50, 48 hours after stimulation
[15] = Example 3, PMA/I stimulated PBMCs, all concentrations
[16] = Example 4, PHA or ConA stimulated PBMCs, 0.25×IC50 to 4×IC50, 48 and 72 hours

CDK6D3, sequence (Q00534 whole entry): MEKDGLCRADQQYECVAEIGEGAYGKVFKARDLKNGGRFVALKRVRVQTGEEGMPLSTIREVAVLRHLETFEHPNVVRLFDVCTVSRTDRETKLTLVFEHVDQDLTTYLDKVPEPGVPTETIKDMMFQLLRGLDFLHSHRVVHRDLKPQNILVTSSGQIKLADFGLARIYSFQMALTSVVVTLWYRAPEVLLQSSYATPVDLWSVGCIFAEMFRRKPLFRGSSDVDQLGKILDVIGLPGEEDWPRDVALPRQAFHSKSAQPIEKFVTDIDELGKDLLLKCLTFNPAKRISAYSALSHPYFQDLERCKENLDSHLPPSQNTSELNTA
CDK6D3, sequence (P30281 whole entry partner): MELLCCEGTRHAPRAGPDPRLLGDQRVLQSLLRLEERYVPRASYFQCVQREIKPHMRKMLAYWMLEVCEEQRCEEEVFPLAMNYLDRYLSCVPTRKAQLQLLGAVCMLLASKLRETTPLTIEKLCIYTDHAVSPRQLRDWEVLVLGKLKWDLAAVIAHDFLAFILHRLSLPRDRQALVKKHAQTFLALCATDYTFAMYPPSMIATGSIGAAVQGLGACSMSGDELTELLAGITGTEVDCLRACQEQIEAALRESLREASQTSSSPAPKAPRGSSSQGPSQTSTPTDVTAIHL
CDK4D1, sequence (P11802 whole entry): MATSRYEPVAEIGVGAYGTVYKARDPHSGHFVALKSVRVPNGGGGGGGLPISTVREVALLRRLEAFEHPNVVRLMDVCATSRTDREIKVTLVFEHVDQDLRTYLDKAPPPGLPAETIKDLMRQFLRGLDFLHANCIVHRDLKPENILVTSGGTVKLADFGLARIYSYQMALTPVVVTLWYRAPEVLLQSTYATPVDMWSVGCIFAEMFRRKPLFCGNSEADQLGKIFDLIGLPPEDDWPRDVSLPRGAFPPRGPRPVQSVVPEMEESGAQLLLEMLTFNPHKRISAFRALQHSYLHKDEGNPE
CDK4D1, sequence (P24385 whole entry partner): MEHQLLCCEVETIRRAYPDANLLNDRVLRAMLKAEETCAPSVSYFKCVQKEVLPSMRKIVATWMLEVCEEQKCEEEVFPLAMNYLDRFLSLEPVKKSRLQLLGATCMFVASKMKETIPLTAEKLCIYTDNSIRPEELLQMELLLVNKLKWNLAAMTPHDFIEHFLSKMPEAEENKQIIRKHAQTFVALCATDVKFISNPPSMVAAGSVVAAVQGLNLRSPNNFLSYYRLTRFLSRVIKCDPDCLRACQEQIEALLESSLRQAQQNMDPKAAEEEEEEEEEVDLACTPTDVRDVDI
CDK7/cyclin H, sequence (P50613 whole entry): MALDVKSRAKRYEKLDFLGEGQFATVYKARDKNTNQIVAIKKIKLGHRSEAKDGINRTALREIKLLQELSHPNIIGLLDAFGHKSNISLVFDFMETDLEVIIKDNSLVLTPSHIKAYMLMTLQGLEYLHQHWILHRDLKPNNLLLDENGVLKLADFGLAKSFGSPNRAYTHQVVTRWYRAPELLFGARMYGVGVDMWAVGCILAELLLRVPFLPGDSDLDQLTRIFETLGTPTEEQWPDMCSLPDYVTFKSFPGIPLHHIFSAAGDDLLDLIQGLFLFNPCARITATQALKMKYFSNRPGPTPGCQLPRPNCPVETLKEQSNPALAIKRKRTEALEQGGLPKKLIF
CDK7/cyclin H, sequence (P51946 whole entry partner): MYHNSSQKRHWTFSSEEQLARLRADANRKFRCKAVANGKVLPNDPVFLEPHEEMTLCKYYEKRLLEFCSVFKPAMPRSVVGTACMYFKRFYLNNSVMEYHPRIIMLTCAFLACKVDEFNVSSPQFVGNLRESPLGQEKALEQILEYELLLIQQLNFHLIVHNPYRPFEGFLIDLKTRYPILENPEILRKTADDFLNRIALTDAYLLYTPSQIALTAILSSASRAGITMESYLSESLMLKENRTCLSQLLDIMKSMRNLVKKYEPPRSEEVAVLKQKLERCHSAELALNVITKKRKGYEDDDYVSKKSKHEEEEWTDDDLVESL
CDK1B, sequence (P06493 whole entry): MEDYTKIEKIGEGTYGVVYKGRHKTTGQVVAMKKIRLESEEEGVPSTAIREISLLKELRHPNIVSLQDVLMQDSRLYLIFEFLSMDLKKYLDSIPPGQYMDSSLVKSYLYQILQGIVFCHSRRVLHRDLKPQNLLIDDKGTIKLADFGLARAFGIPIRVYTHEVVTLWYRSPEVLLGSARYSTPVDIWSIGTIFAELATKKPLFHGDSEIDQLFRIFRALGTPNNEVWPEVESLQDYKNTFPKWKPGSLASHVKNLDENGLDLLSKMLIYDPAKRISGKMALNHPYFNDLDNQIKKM
CDK1B, sequence (P14635 whole entry partner): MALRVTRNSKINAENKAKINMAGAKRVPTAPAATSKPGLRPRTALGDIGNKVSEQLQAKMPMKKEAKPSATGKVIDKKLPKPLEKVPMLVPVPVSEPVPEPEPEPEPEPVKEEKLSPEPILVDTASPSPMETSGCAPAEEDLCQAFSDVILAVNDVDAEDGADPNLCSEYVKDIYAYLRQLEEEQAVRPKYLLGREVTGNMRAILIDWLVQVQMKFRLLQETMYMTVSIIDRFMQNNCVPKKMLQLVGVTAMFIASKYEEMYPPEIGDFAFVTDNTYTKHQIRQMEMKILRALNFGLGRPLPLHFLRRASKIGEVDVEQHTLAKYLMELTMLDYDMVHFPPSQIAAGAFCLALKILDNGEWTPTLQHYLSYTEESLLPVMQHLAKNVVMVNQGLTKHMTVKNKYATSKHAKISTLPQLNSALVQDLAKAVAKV
CDK9/cyclin T1, sequence (P50750 whole entry): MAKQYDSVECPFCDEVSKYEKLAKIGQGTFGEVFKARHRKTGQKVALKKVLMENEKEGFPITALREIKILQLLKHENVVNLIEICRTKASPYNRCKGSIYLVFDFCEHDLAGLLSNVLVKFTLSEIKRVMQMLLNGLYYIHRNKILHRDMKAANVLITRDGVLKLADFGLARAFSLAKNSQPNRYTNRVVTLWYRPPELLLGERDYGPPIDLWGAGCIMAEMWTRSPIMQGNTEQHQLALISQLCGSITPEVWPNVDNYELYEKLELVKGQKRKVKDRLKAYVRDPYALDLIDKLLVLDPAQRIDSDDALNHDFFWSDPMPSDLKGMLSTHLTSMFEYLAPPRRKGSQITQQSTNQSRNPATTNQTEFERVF
CDK9/cyclin T1, sequence (O60563 whole entry partner): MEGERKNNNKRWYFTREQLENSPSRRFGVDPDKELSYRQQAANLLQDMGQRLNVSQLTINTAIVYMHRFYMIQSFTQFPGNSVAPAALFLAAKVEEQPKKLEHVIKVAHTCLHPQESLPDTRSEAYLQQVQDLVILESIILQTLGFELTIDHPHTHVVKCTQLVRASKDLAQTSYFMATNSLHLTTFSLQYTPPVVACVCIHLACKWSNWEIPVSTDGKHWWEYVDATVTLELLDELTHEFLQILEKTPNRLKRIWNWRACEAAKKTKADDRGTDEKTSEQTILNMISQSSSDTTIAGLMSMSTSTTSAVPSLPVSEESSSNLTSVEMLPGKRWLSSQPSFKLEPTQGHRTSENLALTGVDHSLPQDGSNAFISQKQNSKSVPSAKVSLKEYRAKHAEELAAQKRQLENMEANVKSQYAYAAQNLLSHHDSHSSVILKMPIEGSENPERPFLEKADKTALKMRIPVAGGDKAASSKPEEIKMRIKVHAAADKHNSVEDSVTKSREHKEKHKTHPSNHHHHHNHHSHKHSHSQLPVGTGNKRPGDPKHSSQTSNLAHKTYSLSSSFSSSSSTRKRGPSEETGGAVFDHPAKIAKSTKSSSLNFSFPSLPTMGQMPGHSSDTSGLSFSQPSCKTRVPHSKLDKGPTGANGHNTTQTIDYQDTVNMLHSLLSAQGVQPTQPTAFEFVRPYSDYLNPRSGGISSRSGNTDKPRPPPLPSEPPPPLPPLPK
AurB, sequence (Q96GD4 whole entry): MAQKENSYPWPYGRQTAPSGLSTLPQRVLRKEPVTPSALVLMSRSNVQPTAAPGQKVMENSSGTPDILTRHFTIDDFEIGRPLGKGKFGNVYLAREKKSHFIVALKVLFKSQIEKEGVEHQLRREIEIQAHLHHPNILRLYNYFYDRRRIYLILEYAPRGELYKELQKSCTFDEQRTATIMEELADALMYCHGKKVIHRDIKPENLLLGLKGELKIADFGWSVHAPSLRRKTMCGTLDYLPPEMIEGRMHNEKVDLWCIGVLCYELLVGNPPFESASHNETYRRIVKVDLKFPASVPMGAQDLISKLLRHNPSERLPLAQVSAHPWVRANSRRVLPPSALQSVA

Row | Compound | IC50 [1] | IC50 ([2]; published for HCT116 cells, Raynaud et al. 2005, no in-house data, read-out: IC50 Average) | IC50 ([2]; rounded from published HCT116 IC50, used in PBMC assays, read-out: IC50 Used) | IC50 [3] | IC50 [4] | IC50 [5] | IC50 [6] | IC50 [7] | IC50 [8] | IC50 [9] | IC50 [10] | IC50 ([11]; 72 h, read-out: IC50 Average) | IC50 [11, 13] | Concentration reaching complete inhibition of proliferation activity ([12]; Example 4, PHA or ConA stimulated PBMCs) | BrdU incorporation [12, 14] | BrdU incorporation [12, 15] | BrdU incorporation [12, 16]
1 | Cn1cnc2c(NCc3ccccc3)nc(NCCO)nc21 [Compound 3] | > 20000 nM | 56000 nM | 50000 nM | – | – | – | – | – | – | – | – | – | – | – | – | – | –
2 | CC[C@@H](Nc1nc(NCc2cccnc2)c2ncn(C(C)C)c2n1)C(C)(C)O [Compound 5] | 27000 nM | – | – | 51 nM | 23 nM | 15900 nM | 1240 nM | 931 nM | 2750 nM | 1940 nM | 2710 nM | 1430 nM | 1500 nM | – | – | – | –
3 | Cc1c(-c2ccnc(Nc3ccc(N4CCNCC4)cc3)n2)sc(=O)n1C [Compound 7] | 983 nM | – | – | > 10000 nM | > 10000 nM | 4950 nM | 223 nM | 71 nM | 7630 nM | 6270 nM | 195 nM | 5310 nM | 5000 nM | 0.25 ×IC50 | – | – | –
4 | CCNc1nc(C)c(-c2ccnc(Nc3ccc(CNC(C)=O)cc3)n2)s1 [Compound 9] | 147 nM | – | – | 94 nM | 21 nM | 2000 nM | 1670 nM | 204 nM | 118 nM | 110 nM | 97 nM | 250 nM | 250 nM | – | clearly concentration dependent | higher than in PHA stimulated cells | concentration dependency was clearly seen; also recorded: needed at higher concentrations than the other compounds
5 | CCNc1nc(C)c(-c2ccnc(Nc3ccc(S(C)(=O)=O)cc3)n2)s1 [Compound 10] | 455 nM | – | – | > 10000 nM | > 100000 nM | 1490 nM | 115 nM | 13 nM | 5100 nM | 6400 nM | 81 nM | 753 nM | 1000 nM | – | clearly concentration dependent | higher than in PHA stimulated cells | concentration dependency was clearly seen; also recorded: needed at higher concentrations than the other compounds

Source: US8809350B2, “Purine and pyrimidine CDK inhibitors and their use for the treatment of autoimmune diseases” (priority 2004, dated 2014)
